Experimental findings from the supplement of paper PMC12076712 are described below.

What all share (test): pIC50, kinobeads binding competition
The target of one assay is CAMK2B (UniProt Q13554). The settings on record: cell material: Lysate mix. The procedure, abridged: (§1)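 Fold changes relative to vehicle, from biological duplicates, were fitted with logistic dose-response models in the R drc package to give pIC50. These fold changes came from TMT10 LC-MS/MS quantification of digested Kinobeads-bound proteins. Compound was applied at nine concentrations (top 30 μM) either to live Jurkat cells in 1:4 steps for 60 min at 37 °C before lysis, or to Jurkat lysate or a 1:1:1:1 HEK293/K-562/HepG2/placenta lysate mix in 1:5 steps for 60 min at 4 °C.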

A further assay deals with UniProt Q9Y2K2. The procedure, abridged:
as §1

The target of the next assay is T1, UniProt P46734.
T1 sequence (whole entry): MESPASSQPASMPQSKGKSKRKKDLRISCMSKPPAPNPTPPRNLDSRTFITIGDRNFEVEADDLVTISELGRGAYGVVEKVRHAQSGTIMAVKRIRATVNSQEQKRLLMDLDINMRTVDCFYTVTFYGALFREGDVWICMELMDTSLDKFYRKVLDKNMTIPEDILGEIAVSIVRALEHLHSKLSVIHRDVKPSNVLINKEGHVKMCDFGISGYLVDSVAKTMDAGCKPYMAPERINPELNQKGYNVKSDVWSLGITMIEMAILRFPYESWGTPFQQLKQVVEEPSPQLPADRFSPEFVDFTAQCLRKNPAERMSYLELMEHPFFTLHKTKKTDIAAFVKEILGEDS
The essentials: as §1

The target of a further assay is FGFR1 (UniProt P11362). The procedure, abridged:
as §1

The target of another assay is T2, CDKL5 (UniProt O76039).
T2 sequence (whole entry): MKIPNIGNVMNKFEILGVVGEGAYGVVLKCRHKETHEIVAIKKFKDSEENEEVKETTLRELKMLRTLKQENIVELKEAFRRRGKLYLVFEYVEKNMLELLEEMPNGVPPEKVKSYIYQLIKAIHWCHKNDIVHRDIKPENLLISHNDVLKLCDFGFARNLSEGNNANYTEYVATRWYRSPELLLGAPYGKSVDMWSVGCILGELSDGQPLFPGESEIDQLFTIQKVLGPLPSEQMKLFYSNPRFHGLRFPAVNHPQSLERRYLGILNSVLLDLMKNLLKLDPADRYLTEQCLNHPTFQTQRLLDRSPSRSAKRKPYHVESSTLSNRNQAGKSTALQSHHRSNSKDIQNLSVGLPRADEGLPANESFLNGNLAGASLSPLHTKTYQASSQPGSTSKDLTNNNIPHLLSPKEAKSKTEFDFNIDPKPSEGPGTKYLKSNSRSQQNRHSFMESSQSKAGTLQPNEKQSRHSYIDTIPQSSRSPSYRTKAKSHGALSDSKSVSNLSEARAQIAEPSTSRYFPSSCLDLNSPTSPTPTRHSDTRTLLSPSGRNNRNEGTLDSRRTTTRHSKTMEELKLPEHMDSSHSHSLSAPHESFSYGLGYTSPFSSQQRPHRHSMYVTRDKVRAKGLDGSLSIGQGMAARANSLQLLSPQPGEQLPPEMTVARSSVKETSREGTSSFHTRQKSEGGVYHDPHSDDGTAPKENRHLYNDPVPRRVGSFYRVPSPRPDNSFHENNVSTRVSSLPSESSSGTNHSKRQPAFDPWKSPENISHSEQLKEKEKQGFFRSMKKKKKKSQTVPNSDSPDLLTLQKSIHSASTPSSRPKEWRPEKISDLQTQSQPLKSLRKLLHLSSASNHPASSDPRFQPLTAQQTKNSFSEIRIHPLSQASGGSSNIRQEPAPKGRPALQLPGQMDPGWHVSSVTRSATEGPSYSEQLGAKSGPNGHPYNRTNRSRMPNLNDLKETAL
The procedure, abridged:
as §1

A further assay addresses T3, BMX (UniProt P51813).
T3 sequence (whole entry): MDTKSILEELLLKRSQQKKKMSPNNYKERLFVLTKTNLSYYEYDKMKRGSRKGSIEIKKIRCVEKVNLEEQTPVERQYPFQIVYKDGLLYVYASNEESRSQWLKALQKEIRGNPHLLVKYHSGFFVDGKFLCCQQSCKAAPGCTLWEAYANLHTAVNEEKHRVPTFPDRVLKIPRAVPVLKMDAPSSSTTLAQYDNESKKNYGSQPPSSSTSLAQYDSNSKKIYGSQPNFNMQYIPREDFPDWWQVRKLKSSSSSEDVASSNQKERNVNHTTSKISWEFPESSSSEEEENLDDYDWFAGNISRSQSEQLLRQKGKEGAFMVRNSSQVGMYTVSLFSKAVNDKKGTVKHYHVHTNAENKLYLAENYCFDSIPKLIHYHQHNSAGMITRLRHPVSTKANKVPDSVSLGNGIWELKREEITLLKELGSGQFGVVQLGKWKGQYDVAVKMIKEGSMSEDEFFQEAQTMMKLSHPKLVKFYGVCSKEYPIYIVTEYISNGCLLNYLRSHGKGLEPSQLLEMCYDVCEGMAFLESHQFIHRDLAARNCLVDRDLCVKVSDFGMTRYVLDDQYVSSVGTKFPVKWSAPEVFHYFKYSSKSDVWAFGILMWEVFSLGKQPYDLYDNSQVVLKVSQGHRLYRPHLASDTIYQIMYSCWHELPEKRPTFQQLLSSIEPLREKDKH
The settings on record: cell material: Lysate mix. The procedure, abridged: as §1

For another assay, the target named is T4, UniProt Q15831.
T4 sequence (whole entry): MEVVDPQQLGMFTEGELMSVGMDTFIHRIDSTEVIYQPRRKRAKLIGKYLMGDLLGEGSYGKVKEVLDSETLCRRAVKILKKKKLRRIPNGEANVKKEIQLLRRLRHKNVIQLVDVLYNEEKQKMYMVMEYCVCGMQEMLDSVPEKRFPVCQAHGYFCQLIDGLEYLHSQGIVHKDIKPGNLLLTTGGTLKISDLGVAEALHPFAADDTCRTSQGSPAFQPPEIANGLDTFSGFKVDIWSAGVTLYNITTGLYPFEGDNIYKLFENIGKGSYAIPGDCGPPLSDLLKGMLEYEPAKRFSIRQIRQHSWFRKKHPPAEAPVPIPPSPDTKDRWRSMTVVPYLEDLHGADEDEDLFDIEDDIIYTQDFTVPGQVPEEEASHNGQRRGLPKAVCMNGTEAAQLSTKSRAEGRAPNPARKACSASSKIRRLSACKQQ
The essentials:
as §1

The target of a further assay is MAP3K4 (UniProt Q9Y6R4). The essentials: as §1
The target in another assay is UniProt Q9BVS4. The procedure, abridged:
as §1

The target of the next assay is NEK6 (UniProt Q9HC98). The settings on record: cell material: Lysate mix. The procedure, abridged:
as §1

Usually pIC50 stands for the negative decadic logarithm of the IC50, by convention in mol/L.

NEK6, sequence (Q9HC98 whole entry): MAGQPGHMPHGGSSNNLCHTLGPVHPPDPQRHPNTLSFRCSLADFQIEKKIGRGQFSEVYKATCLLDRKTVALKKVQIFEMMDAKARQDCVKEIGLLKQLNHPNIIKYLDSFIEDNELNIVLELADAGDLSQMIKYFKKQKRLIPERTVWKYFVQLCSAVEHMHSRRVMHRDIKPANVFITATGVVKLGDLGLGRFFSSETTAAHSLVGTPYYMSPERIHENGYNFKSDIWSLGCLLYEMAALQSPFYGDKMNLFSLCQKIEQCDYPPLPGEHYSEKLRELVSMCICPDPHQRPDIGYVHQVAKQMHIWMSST
FGFR1, sequence (P11362 whole entry, looked up): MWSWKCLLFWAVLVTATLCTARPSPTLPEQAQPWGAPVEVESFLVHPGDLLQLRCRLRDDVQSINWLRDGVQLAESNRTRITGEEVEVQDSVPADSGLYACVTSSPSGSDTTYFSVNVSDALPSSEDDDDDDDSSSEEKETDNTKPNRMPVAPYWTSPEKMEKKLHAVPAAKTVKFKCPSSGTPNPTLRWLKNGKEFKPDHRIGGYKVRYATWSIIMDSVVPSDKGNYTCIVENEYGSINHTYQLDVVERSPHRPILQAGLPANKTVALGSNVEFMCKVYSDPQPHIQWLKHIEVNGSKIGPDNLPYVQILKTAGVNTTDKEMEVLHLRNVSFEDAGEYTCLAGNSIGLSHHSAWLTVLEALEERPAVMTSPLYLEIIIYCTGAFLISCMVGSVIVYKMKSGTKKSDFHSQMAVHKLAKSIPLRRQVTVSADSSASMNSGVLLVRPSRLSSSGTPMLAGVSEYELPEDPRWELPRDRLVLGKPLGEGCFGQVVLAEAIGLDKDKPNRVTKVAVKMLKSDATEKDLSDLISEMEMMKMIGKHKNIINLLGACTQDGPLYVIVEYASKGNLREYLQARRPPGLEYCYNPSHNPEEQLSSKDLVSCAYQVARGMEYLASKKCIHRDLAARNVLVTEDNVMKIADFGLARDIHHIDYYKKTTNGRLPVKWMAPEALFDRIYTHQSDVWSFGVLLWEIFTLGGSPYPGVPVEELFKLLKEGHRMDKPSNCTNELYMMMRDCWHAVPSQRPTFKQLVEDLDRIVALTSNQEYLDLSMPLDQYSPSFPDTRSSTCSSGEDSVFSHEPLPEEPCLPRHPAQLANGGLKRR
MAP3K4, sequence (Q9Y6R4 whole entry): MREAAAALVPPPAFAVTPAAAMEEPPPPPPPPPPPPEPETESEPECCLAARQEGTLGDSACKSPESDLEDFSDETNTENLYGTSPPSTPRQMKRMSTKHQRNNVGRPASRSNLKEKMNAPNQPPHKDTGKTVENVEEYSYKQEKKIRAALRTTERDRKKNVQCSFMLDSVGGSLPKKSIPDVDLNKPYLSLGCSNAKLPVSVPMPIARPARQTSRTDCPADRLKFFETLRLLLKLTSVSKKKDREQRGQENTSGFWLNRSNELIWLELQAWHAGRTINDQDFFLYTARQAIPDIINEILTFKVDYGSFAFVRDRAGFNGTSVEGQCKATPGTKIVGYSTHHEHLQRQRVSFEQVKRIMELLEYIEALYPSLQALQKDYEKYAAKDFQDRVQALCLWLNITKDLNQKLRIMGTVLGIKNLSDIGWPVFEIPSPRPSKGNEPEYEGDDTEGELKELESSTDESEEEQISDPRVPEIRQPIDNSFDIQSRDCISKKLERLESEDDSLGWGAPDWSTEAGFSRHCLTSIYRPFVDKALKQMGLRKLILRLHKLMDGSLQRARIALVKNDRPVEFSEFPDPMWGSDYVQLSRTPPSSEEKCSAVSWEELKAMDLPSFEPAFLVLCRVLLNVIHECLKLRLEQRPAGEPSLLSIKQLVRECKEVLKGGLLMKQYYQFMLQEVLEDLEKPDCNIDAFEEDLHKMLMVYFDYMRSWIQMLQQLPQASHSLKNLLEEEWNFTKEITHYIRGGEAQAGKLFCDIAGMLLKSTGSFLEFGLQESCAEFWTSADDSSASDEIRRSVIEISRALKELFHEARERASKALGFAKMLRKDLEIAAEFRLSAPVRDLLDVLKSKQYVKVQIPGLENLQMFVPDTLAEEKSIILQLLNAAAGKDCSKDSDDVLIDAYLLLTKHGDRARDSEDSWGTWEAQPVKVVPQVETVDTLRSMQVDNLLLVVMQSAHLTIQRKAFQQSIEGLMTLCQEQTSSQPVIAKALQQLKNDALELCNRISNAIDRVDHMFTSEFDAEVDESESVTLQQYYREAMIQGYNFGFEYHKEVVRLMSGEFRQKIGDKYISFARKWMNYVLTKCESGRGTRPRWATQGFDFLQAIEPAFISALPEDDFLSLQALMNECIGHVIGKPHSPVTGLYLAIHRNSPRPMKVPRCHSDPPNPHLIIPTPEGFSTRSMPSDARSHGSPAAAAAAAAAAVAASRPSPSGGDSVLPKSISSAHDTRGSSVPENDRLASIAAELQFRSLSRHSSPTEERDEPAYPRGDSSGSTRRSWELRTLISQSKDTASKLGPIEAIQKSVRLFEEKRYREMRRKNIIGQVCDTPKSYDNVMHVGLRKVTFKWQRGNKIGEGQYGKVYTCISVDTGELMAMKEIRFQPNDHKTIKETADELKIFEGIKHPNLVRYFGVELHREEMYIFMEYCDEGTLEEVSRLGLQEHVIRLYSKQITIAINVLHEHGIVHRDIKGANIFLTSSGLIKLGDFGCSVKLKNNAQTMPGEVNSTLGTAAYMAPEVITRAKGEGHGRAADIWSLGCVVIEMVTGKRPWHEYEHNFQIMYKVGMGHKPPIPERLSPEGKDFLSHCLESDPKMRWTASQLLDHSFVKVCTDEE
UniProt Q9Y2K2, sequence (Q9Y2K2 whole entry, looked up): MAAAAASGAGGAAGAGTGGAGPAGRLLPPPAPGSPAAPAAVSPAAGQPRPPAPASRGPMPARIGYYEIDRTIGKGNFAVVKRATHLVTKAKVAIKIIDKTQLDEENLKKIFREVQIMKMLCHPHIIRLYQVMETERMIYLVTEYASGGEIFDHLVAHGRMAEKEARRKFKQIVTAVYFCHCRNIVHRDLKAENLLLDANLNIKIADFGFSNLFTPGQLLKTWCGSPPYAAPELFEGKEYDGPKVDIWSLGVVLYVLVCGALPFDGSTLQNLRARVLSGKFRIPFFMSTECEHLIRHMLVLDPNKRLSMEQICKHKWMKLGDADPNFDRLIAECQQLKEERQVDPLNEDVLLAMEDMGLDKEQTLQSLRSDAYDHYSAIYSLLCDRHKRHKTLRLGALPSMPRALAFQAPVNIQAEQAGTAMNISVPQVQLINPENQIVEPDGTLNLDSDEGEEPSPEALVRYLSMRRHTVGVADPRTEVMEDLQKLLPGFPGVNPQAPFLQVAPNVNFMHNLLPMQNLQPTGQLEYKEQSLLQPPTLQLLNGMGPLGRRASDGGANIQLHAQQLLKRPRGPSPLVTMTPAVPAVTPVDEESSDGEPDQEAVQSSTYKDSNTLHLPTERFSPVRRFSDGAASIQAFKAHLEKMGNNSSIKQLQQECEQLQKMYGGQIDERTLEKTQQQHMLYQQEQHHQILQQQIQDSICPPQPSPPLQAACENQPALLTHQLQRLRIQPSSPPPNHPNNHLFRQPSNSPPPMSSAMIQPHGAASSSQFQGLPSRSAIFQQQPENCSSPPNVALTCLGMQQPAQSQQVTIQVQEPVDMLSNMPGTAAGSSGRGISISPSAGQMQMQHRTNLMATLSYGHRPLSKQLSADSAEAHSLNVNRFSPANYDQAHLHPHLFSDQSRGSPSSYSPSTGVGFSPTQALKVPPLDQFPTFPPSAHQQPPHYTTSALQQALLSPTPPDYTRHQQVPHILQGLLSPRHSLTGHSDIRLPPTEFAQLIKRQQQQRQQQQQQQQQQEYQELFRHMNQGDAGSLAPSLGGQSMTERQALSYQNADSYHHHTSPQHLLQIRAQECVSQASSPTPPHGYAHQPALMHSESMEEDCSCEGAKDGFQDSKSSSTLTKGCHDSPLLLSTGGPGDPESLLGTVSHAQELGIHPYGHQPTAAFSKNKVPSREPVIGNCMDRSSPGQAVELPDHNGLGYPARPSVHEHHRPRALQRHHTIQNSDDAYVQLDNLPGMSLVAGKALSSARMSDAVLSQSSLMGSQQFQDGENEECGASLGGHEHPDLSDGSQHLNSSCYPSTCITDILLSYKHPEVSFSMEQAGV
UniProt Q9BVS4, sequence (Q9BVS4 whole entry, looked up): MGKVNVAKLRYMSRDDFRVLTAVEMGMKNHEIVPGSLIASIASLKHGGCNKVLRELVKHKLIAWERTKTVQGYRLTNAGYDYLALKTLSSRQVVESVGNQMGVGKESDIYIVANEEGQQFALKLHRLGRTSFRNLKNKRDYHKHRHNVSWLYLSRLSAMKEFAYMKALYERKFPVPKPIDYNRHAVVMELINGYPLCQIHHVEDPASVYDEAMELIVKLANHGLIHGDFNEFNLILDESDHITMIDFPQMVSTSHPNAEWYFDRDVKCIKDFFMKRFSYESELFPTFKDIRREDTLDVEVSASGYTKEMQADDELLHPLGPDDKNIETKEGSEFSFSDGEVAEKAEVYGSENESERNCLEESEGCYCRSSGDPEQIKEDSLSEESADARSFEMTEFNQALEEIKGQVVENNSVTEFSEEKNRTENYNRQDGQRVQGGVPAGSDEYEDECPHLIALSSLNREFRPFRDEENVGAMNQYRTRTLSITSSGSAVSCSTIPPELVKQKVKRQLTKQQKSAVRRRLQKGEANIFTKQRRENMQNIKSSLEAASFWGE

With `C#CCNC(=O)c1cc(Nc2cc(C)[nH]n2)nc(N2CCN(Cc3ccc(S(=O)(=O)F)cc3)CC2)n1`, the pIC50 at CAMK2B is below 4.52; on UniProt Q9Y2K2 (cell material: Lysate mix) it was below 4.52; at UniProt P46734 (cell material: Lysate mix), below 4.52; on FGFR1 (cell material: Lysate mix), below 4.52; at CDKL5 (cell material: Lysate mix) it was 5.23; at BMX, below 4.52. Also, the pIC50 on UniProt Q15831 (cell material: Lysate mix) was 4.78; on MAP3K4 (cell material: Lysate mix), 4.88; on UniProt Q9BVS4 (cell material: Lysate mix) it was below 4.52; on NEK6, below 4.52.
For `O=C(NCCNC(=O)c1cc(Nc2cc(C3CC3)[nH]n2)nc(N2CCN(Cc3ccc(S(=O)(=O)F)cc3)CC2)n1)OC1CC/C=C/CCC1` (configuration not stated), the pIC50 at CAMK2B, on UniProt Q9Y2K2 (cell material: Jurkat cells), on UniProt Q9Y2K2 (cell material: Jurkat lysate), on UniProt Q9Y2K2 (cell material: Lysate mix), on UniProt P46734 (cell material: Jurkat cells) and at UniProt P46734 (cell material: Jurkat lysate) was below 4.52 each time. Further, the pIC50 on UniProt P46734 (cell material: Lysate mix) was below 4.52; at FGFR1 (cell material: Jurkat lysate), below 4.52; on FGFR1 (cell material: Lysate mix), below 4.52; on CDKL5 (cell material: Jurkat lysate) it was 4.89; at CDKL5 (cell material: Lysate mix), 5.12; at BMX, below 4.52. Further, the negative logarithm of the IC50 (pIC50) on UniProt Q15831 (cell material: Jurkat lysate) was below 4.52; on UniProt Q15831 (cell material: Lysate mix), below 4.52; at MAP3K4 (cell material: Jurkat cells), 5.96; at MAP3K4 (cell material: Jurkat lysate) it was below 4.52; on MAP3K4 (cell material: Lysate mix) it was below 4.52; on UniProt Q9BVS4 (cell material: Jurkat cells) it was below 4.52. The pIC50 on UniProt Q9BVS4 (cell material: Jurkat lysate), at UniProt Q9BVS4 (cell material: Lysate mix) and at NEK6 was below 4.52 in each case.
Regarding `CCNC(=O)c1cc(Nc2cc(C3CC3)[nH]n2)nc(N2CCN(Cc3ccc(S(=O)(=O)F)cc3)CC2)n1`, the pIC50 at CAMK2B was below 4.52; on UniProt Q9Y2K2 (cell material: Lysate mix) it was below 4.52; on UniProt P46734 (cell material: Lysate mix), 4.9; at FGFR1 (cell material: Lysate mix), 5.24; on CDKL5 (cell material: Lysate mix), 6.16; at BMX it was below 4.52. The pIC50 at UniProt Q15831 (cell material: Lysate mix) was 5.4; at MAP3K4 (cell material: Lysate mix), 5.61; on UniProt Q9BVS4 (cell material: Lysate mix), below 4.52; at NEK6, below 4.52.
In the case of `Cc1cc(Nc2cc(C(=O)NCCNC(=O)OC3CC/C=C/CCC3)nc(N3CCN(Cc4ccc(S(=O)(=O)F)cc4)CC3)n2)n[nH]1` (configuration not stated), the pIC50 on CAMK2B, on UniProt Q9Y2K2 (cell material: Lysate mix), on UniProt P46734 (cell material: Lysate mix), on FGFR1 (cell material: Lysate mix), at CDKL5 (cell material: Lysate mix) and at BMX was below 4.52 each time. Besides, the pIC50 on UniProt Q15831 (cell material: Lysate mix), on MAP3K4 (cell material: Lysate mix), on UniProt Q9BVS4 (cell material: Lysate mix) and on NEK6 was below 4.52 throughout.
As to `CCNC(=O)c1cc(Nc2cc(C)[nH]n2)nc(N2CCN(Cc3ccc(S(=O)(=O)F)cc3)CC2)n1`, the pIC50 at CAMK2B was below 4.52; at UniProt Q9Y2K2 (cell material: Lysate mix), below 4.52; at UniProt P46734 (cell material: Lysate mix), below 4.52; at FGFR1 (cell material: Lysate mix), below 4.52; on CDKL5 (cell material: Lysate mix), 5.11; on BMX, below 4.52. The pIC50 was 4.61 on UniProt Q15831 (cell material: Lysate mix), 4.8 on MAP3K4 (cell material: Lysate mix), below 4.52 at UniProt Q9BVS4 (cell material: Lysate mix) and below 4.52 at NEK6.
As for `C#CCNC(=O)c1cc(Nc2cc(C3CC3)[nH]n2)nc(N2CCN(Cc3ccc(S(=O)(=O)F)cc3)CC2)n1`, the pIC50 is below 4.52 at CAMK2B; below 4.52 on UniProt Q9Y2K2 (cell material: Jurkat lysate); below 4.52 on UniProt Q9Y2K2 (cell material: Lysate mix); 5.54 on UniProt P46734 (cell material: Jurkat cells); 4.87 at UniProt P46734 (cell material: Lysate mix); 5.72 on FGFR1 (cell material: Jurkat cells). Moreover, the negative logarithm of the IC50 (pIC50) was below 4.52 on FGFR1 (cell material: Jurkat lysate); 4.81 on FGFR1 (cell material: Lysate mix); 6.89 at CDKL5 (cell material: Jurkat cells); 5.95 at CDKL5 (cell material: Jurkat lysate); 6.41 on CDKL5 (cell material: Lysate mix); below 4.52 on BMX. In addition, the pIC50 on UniProt Q15831 (cell material: Jurkat lysate) worked out at 5.81; on UniProt Q15831 (cell material: Lysate mix), 6.42; at MAP3K4 (cell material: Jurkat cells), 6.09; at MAP3K4 (cell material: Jurkat lysate), 4.81; at MAP3K4 (cell material: Lysate mix) it was 5.74; on UniProt Q9BVS4 (cell material: Jurkat cells), 5.12. In addition, the negative-log IC50 (pIC50) at UniProt Q9BVS4 (cell material: Jurkat lysate), on UniProt Q9BVS4 (cell material: Lysate mix) and on NEK6 was below 4.52 throughout.
